In patent publication US7863449B2, “Modulators of muscarinic receptors” (Vertex Pharmaceuticals Incorporated, priority 2004, dated 2011):

How the values were obtained:
M1 muscarinic receptor = molecular target: T1, M1 muscarinic receptor (Homo sapiens, UniProt P11229); test: Functional mobilization of intracellular calcium (FLIPR), M1-CHO cells; format: cell-based
T1 construct: expressed in transfected cells; host or cells: CHO (M1-CHO)
T1 sequence (P11229 1-460): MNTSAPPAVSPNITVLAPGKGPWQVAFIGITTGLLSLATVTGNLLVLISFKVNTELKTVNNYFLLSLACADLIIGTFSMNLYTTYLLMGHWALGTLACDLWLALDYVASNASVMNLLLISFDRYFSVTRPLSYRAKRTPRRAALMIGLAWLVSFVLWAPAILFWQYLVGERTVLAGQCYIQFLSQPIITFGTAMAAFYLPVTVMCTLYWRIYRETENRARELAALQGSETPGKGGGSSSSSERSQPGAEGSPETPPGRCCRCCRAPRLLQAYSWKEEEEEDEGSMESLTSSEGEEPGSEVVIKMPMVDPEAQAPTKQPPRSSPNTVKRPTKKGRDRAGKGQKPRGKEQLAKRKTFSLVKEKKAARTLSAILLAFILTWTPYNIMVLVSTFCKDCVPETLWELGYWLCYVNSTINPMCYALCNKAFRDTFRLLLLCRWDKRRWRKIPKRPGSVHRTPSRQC
How it was run: (§1)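 CHO cells expressing M1 or M4, loaded with Fluo-3 AM or Calcium 3 dye with 1 mM probenecid, 0.5% DMSO final. Agonist mode: compound added directly; antagonist mode: 15 min pre-incubation (or co-application) before carbachol at EC80. Fluorescence recorded 60 s on FLIPR.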

M4 muscarinic receptor = molecular target: T2, M4 muscarinic receptor (Homo sapiens, UniProt P08173); test: Functional mobilization of intracellular calcium (FLIPR), M4-CHO cells; format: cell-based
T2 construct: expressed in transfected cells; host or cells: CHO (M4-CHO)
T2 sequence (P08173 1-479): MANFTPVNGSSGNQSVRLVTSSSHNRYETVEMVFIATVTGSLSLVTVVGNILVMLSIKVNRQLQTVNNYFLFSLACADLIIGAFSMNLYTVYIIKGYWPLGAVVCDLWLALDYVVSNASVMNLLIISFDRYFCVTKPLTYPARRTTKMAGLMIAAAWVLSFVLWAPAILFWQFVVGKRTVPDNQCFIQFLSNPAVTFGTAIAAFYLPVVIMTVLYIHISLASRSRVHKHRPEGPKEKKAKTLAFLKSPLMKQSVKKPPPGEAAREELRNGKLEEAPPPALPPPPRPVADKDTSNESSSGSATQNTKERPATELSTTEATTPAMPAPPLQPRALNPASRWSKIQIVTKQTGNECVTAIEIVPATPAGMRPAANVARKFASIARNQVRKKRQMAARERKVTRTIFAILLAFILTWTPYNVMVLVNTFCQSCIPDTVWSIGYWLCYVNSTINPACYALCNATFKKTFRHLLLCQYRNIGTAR
How it was run: as §1

[1] = 100% efficacy is the maximum response obtained using Carbachol as a control

## CCOC(=O)N1C2CCC1CC(N1CCC3(CC1)CN(C(=O)NC1CCCCC1)Cc1ccccc13)C2 (stereo not shown) [compound 358]
M1 muscarinic receptor; [1]
  Emax: 25 to 100%
M1 muscarinic receptor; M1-CHO cells, FLIPR calcium mobilization
  M1 Activity: +++ (activity was measured to be less than 1.0 μM)
M4 muscarinic receptor; [1]
  Emax: 25 to 100%
M4 muscarinic receptor; M4-CHO cells, FLIPR calcium mobilization
  M4 Activity: +++ (activity was measured to be less than 1.0 μM)
